Laboratory results from patent US7579331B2, “Method of improved diuresis in individuals with impaired renal function” (Novacardia, Inc., priority 2004, dated 2009).
Where two headings read alike, the source gives them in different places.

Legend:
adenosine A1 receptors [1] = biological target: T1, adenosine A1 receptors (Homo sapiens, UniProt P30542); conditions: BG 9719 relative to KW-3902
T1 sequence (P30542 1-326): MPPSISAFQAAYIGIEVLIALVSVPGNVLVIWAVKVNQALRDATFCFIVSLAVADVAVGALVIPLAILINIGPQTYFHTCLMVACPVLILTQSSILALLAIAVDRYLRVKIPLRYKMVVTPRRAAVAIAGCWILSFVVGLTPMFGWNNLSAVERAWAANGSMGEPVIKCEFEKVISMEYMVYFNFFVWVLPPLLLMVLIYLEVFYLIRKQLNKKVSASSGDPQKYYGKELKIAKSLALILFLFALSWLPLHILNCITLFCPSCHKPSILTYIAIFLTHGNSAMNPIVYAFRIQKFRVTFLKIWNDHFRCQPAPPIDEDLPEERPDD

[2] = reported by Ticho et al 2003; cited from earlier work
adenosine A1 receptors [3] = biological target: T1, adenosine A1 receptors; conditions: read-out: A1KI, cited from earlier work
urine volume = conditions: equi-potent dose .3 mg/kg or 20 mg, Wolff et al 1998; cited from earlier work

## CCCn1c(=O)c2nc([C@H]3C[C@H]4C[C@@H]3[C@@H]3O[C@H]43)[nH]c2n(CCC)c1=O [BG 9719]
Adenosine A1 receptors [1]
  greater affinity for the A1 receptor than KW-3902: 60%
[2]
  solubility: poor
  stability: poor
Adenosine A1 receptors [3]; adenosine A1 receptor
  Ki: 0.45 ± 0.04 nM
Adenosine A1 receptors [3]; repeated in the equi-potent dose table
  Ki: 0.45 ± 0.04 nM
Urine volume
  % Urine volume increase over placebo, 3 hr: 33%
